The values that follow are results of earlier work, collected in patent publication US20170246115A1, “MEDICINE” (KOWA COMPANY, LTD., priority 2012, published 2017).

The conditions of the series: amorphous form formed on drying crystal form A at a water content of 4% or lower.

In the case of `O=C([O-])C[C@H](O)C[C@H](O)/C=C/c1c(C2CC2)nc2ccccc2c1-c1ccc(F)cc1.O=C([O-])C[C@H](O)C[C@H](O)/C=C/c1c(C2CC2)nc2ccccc2c1-c1ccc(F)cc1.[Ca+2]` [amorphous pitavastatin calcium], the storage stability entry was “considerably poor storage stability”.
